Assay results taken from patent publication US8722343B2, “Methods and compositions for the diagnosis and treatment of diabetes” (priority 2008, dated 2014).

Assay: MTT cell viability assay in βTC3 cells
Assay type: cell-based, mouse
Settings: mouse; 0.05 mM DHK, five days; read-out: decrease in RGR (βTC3 viability)
Description: 1A: Glutamate induces a dose-dependent beta-cell death. 24 hrs after plating, αTC1 and βTC3 cells were incubated for five days with the indicated glutamate concentrations and viability was assessed by MTT assay. Data are presented as % Relative Growth Rate (RGR) versus controls (100%) and represent the mean±SE of at least 7 independent experiments (n=6). * p<0.01 vs ctrl; ° p<0.01 vs Glu 5 mM in αTC1.
1C: β-cell death is prevented by pharmacological inhibition of ionotropic channels. 24 hrs after plating, αTC1 and βTC3 cells were incubated for five days with 0.025 mM CNQX (left panel) or 0.1 mM APV (right panel), in the presence or the absence of 5 mM glutamate and viability was assessed by MTT assay. Data are presented as % RGR versus control samples (100%) and represent the mean±SE of three independent experiments (n=5). * p<0.05
6B. MTT assay. 24 hrs after plating, αTC1 and βTC3 cells were incubated for five days with different DHK concentrations and viability was assessed by MTT assay. Data are presented as % RGR versus control (100%) and represent the mean±SE of three independent experiments (n=8). * (DHK versus control) p<0.05
8B: MTT assay: 24 hrs after plating, βTC3 cells were incubated for five days with the indicated ceftriaxone concentrations in the presence or absence of 5 mM glutamate and viability was assayed by MTT assay. Data are presented as % RGR versus control (100%) and represent the mean±SE of three independent experiments (n=8). *(ceftriaxone versus relative control) p<0.05.
βTC3 and αTC1 cells were derived from progeny of transgenic mice expressing SV40 large T-antigen under control of the rat insulin II 5′-flanking region or rat preproglucagon 5′-flanking region, respectively (Powers et al, 1990) and were originally provided by Douglas Hanahan (Department of Biochemistry and Biophysics, University of California, San Francisco, Calif.). βTC3 were grown in RPMI 1640 11 mM glucose, supplemented with 10% heat inactivated fetal bovine serum, 2 mM L-glutamine, and 100 IU/ml streptomycin/penicillin, as previously described (Galbiati et al, 2002). Experiments were performed between the 27 and 33 passage of cell culture.
3-(4,5-Dimethylthiazol-2-yl)-2,5-diphenyltetrazolium bromide (MTT) assay. βTC3 cells were seeded at a density of 8×10^3 cells/well onto 96-well culture plates. Cells were allowed to attach and grow for 24 h in standard medium. Then medium was replaced with fresh medium containing glutamate, DHK (Dihydrokainic Acid, Sigma Aldrich), glutamate receptor inhibitors APV and CNQX (Sigma Aldrich) or ceftriaxone (Sigma Aldrich) at the indicated concentrations. […] Coloured formazan product was determined spectrophotometrically at 540 nm. 20 islets/tube were used to assess viability in human isolated islets. Data are expressed as % Relative Growth Rate (% RGR) versus control samples.

CC(C)[C@H]1CN[C@H](C(=O)O)[C@H]1CC(=O)O [DHK, Dihydrokainic Acid]
cytotoxicity at 5 days, 0.05 mM: 6.17%
